Measurements reported in article PMC11249646, “Small-Molecule Disruptors of the Interaction between Calcium- and Integrin-Binding Protein 1 and Integrin αIIbβ3 as Novel Antiplatelet Agents” (ACS Pharmacology & Translational Science, 2024).
Where two headings read alike, the source gives them in different places.

Key:
Format in all cases: binding
[1] = molecular target: T1, CIB1 and αIIb interaction (CIB1-GST : F-αIIb peptide) (Homo sapiens, UniProt Q99828); assay: FP assay, 1536-well qHTS format (primary and confirmatory screen); conditions: for CONFIRMATORY SCREEN Confirm?: YES/NO call; for CONFIRMATORY SCREEN Curve Class: qHTS curve class; for CONFIRMATORY SCREEN Curve Class / Curve Class: negative sign = inhibitory curve; for CONFIRMATORY SCREEN Efficacy (%) / Efficacy (%): negative = inhibition
T1 construct: made in house; host or cells: BL-21 plus RIL cells (E. coli)
T1 sequence (Q99828 1-191): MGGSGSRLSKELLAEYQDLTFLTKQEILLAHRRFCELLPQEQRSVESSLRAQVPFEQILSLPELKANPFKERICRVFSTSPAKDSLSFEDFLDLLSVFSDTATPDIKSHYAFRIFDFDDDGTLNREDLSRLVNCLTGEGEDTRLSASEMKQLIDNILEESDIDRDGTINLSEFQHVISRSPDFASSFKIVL

[2] = molecular target: T2, CIB1 and αIIb interaction (GST-CIB1 : F-αIIb peptide) (Homo sapiens, UniProt Q99828); assay: FP assay, 384-well format (screen); set-up: 384-well SCREEN Efficacy (%): concentration or dose not given beside the values; conditions: F-αIIb peptide; for 384-well SCREEN Confirm?: YES/NO; for IC50: read-out: 384-well SCREEN IC50
T2 construct: made in house; host or cells: BL-21 plus RIL cells (E. coli)
T2 sequence (Q99828 1-191): T1 sequence (Q99828 1-191)

[3] = molecular target: T3, GST-CIB1 : F-scrambled peptide (Homo sapiens, UniProt Q99828); assay: FP scrambled-peptide counter screen, 384-well format; conditions: F-scrambled peptide; for 384-well COUNTERSCREEN Confirm?: *: Curve in opposite direction; for IC50: read-out: 384-well COUNTERSCREEN IC50
T3 construct: made in house; host or cells: BL-21 plus RIL cells (E. coli)
T3 sequence (Q99828 1-191): T1 sequence (Q99828 1-191)

[4] = molecular target: T3, GST-CIB1 : F-scrambled peptide; assay: FP scrambled-peptide counter screen, 1536-well format; conditions: scrambled-peptide counterscreen; for COUNTERSCREEN Confirm?: YES/NO call; for COUNTERSCREEN Curve Class: qHTS curve class; for IC50: read-out: COUNTERSCREEN IC50
[5] = confirmatory screen, read-out: CONFIRMATORY SCREEN IC50
[6] = qHTS FP screen hits, Table S2, one class per curve where COUNT > 1
[7] = qHTS FP screen hits, Table S2, read-out: IC50
[8] = qHTS primary screen hits, Table S2
[9] = qHTS primary screen hits, Table S2, read-out: IC50

Row | SMILES | CONFIRMATORY SCREEN Confirm? ([1]; confirmatory screen) | CONFIRMATORY SCREEN Curve Class ([1]; confirmatory screen) | CONFIRMATORY SCREEN Efficacy (%) ([1]; confirmatory screen) | IC50 [1, 5] | Efficacy (%) ([1]; qHTS FP screen hits, Table S2) | Curve Class [1, 6] | IC50 [1, 7] | 384-well SCREEN Efficacy (%) [2] | 384-well SCREEN Confirm? [2] | IC50 [2] | 384-well COUNTERSCREEN Efficacy (%) [3] | 384-well COUNTERSCREEN Confirm? [3] | IC50 [3] | COUNTERSCREEN Efficacy (%) [4] | COUNTERSCREEN Confirm? [4] | COUNTERSCREEN Curve Class [4] | Efficacy (%) [1, 8] | Curve Class [1, 8] | IC50 [1, 9] | IC50 [4]
1 | O=C(O)c1cccc(CN2C(=O)/C(=C(\c3ccccc3)c3ccc(Cl)cc3)c3ccccc32)c1 [NCGC00378823-01] | YES | -2.2 | -63% | 44.7 µM | -34% | -1.2 | 39.8 µM | 70% | YES | 63.4 µM | 0% | YES | > 120 µM | -27% | YES | 4 |  |  |  | 
2 | Cc1ccc(S(=O)(=O)Nc2cnccc2C(=O)Nc2nc(-c3nc4ccccc4s3)cs2)cc1.O=C(O)C(F)(F)F [NCGC00343736-01] | YES | -1.1 | -89% |  |  |  |  | 44% | YES | 22.4 µM | 23% | YES | > 120 µM | -16% | YES | 4 | -51% | -1.2 | 28.2 µM | 
3 | O=C(O)C(F)(F)F.O=S(=O)(Nc1nc2n(n1)C(c1ccccc1)C=C(c1ccc(Cl)cc1)N2)c1ccccc1 (stereo not shown) [NCGC00100537-04] | YES | -2.2 | -81% | 39.8 µM | -125% | -1.1 | 22.4 µM | 85% | YES | 50.1 µM | 80% |  | 50.1 µM | 10% | YES | 4 |  |  |  | 
4 | Cc1ccc(S(=O)(=O)Nc2cnccc2C(=O)Nc2nc(-c3cccc(Cl)c3)cs2)cc1.O=C(O)C(F)(F)F [NCGC00318956-01] | YES | -1.1 | -94% |  |  |  |  | 43% | YES | 14.2 µM | 84% | YES* | 20 µM | -8.5% | YES | 4 | -32% | -1.4 | 12.6 µM | 
5 | CCc1oc2ccccc2c1C(=O)c1cc(Br)c(O)c(Br)c1 [NCGC00013895-08] | YES | -1.2 | -66% | 22.4 µM |  |  |  | 39% | YES | 25.1 µM | 60% | YES | 12.6 µM | 52% | YES |  |  |  |  | 20 µM
6 | O=C(Nc1nc(-c2ccccc2)cs1)c1ccncc1NS(=O)(=O)c1ccc(Cl)cc1.O=C(O)C(F)(F)F [NCGC00344892-02] | YES | -1.2 | -69% | 25.1 µM |  |  |  | 31% | YES | 35.5 µM | 55% | YES | > 120 µM | 13% | YES | 4 |  |  |  | 
7 | CC(O)c1ccc(-c2ccc3ncnc(NCc4nccs4)c3c2)o1.O=C(O)C(F)(F)F (stereo not shown) [NCGC00238382-01] | YES | -3 | -53% |  | -63% | -2.2 | 39.8 µM | 61% | YES | 14.1 µM | 36% | YES | 17.7 µM | 0% | YES | 4 |  |  |  | 
8 | Cn1sc(=O)n(Cc2ccccc2)c1=O [NCGC00165913-03] | YES | -1.2 | -81% | 7.9 µM | -79% | -1.2 | 8.9 µM | 90% | YES | 1.7 µM | -20% | YES | > 120 µM | -22% | YES | 4 |  |  |  | 
9 | Cc1cc(=O)oc2cc(SC3=NS(=O)(=O)c4ccccc43)ccc12 [NCGC00189497-01] | YES | -1.4 | -39% | 20 µM | -45% | -2.2 | 39.8 µM | 52% | YES | 44.7 µM | 34% |  | 10 µM | 115% | YES | 3 |  |  |  | 39.8 µM
10 | COc1cccc(-c2csc(NC(=O)c3ccncc3NS(=O)(=O)c3ccc(C)cc3)n2)c1 [NCGC00319006-02] | YES | -2.2 | -89% | 31.6 µM |  |  |  | 52% | YES | 20 µM | 18% | YES | > 120 µM | -41% | YES | -3 |  |  |  | 89.1 µM
